Legend:
cyclophilin A = cyclophilin A (Homo sapiens (Human), UniProt P62937); experiment: Functional peptidyl prolyl isomerase (PPIase) spectrophotometric assay, cyclophilin A; assay type: biochemical; settings: first value of CypA/D cell
Description: (§1) Cyclophilins are enzymes that catalyse the cis-trans isomerisation of peptide bonds to the amino acid proline. This event is important in many biological processes, including protein folding and signal transduction. […] The method to measure this activity and its inhibition is similar to that described by Jankowski (Analytical Biochemistry, 252, 2, 299-307 (1997)). The assay measures the cis to trans isomerisation of a peptide substrate catalysed by a PPlase enzyme using a UV/Vis spectrophotometer. This assay is a manual single cuvette-based assay. A first order rate equation is fitted to the absorbance data to obtain a rate constant. The catalytic rate is calculated from the enzymatic rate minus the background rate. The Ki (the concentration required to produce half maximum inhibition) for an inhibitor is obtained from the rate constant plotted against the inhibitor concentration. Typically, a 6-point dose response curve is obtained from duplicates and a Ki determined. Data are given in Table 5 as Ki [nM] for cyclophilins A and D, expressed in column 2 of Table 5 as Ki (cypA)/Ki (cypD).

cyclophilin D = cyclophilin D (Homo sapiens (Human), UniProt P30405); experiment: Functional peptidyl prolyl isomerase (PPIase) spectrophotometric assay, cyclophilin D; assay type: biochemical; settings: second value of CypA/D cell; read-out: Ki CypD
Chain of cyclophilin D (P30405 30-207, species assumed): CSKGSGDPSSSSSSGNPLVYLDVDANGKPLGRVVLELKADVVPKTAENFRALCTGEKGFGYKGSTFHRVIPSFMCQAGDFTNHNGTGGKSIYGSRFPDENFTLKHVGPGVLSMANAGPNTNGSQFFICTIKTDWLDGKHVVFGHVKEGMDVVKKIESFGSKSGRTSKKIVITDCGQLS
Description: as §1

[1] = tested on: permeabilised HepG2 cells; experiment: Calcium retention capacity (CRC) assay in permeabilised HepG2 cells (MPTP opening); assay type: cell-based, human; parameters: CRC [10 μM]: unit not given here; settings: compound at 10 μM; for CRC [10 μM]: digitonin permeabilised HepG2 cells; for CRC [10 μM] (ratio vs CsA): normalised to cyclosporin A, value in brackets
Procedure: The use of permeabilised cells means that inhibitory compounds that may not normally enter non-permeabilised cells are more likely to be active.
The calcium retention capacity (CRC) is a measure of the capability of mitochondria to retain calcium, primarily in the form of calcium phosphates, in the mitochondrial matrix.
In a CRC assay, the calcium indicator Calcium Green-5N (InVitrogen) is utilized. […] The assay is carried out in HepG2 (human hepatocellular carcinoma) cells which are digitonin permeabilized. Trains of calcium pulses (typically 5 μM additions) are added which results in a sudden increase in fluorescence which is then reduced by mitochondrial buffering. The cells will reach a point at which the calcium addition is no longer buffered, an indication that the MPTP has opened (mitochondrial permeability transition).
The experiment is performed with and without inhibitor. A compound that acts to inhibit the mitochondrial pore opening will result in a greater requirement for calcium to reach the transition point. The results are normalised to a positive control (cyclosporin A) in each experiment. The results are shown in column 3 of Table 5 as CRC [10 μM] (ratio vs CsA). The method of digitonin permeabilised whole cell CRC assay is similar to that used by Chiara et al. (PLoS One, March, 3, 3, e1852 (2008)).

SH-SY5Y cells = experiment: Thapsigargin treated cell death assay in SH-SY5Y cells; assay type: cell-based, human; settings: compound at 10 μM; positive = protection from cell death, negative = compound toxicity
Description: Thapsigargin raises intracellular free calcium (Ca^2+) by potently inhibiting the endoplasmic reticulum Ca-ATPase, which sequesters Ca^2+ from the cytosol. The increased cytosolic Ca^2+ concentration is buffered by mitochondria by exchanging Ca^2+ for K, leading to depolarisation in the inner mitochondrial membrane and permeability transition.
The thapsigargin treated Jurkat cell death assay is a homogeneous 96 well plate based assay for cell death, instigated by the opening of the mitochondrial permeability transition pore (MPTP). The addition of thapsigargin to Jurkat cells results in an influx of calcium, the increase in intracellular calcium will initially be buffered by the mitochondria, but eventually the increasing calcium concentration will result in the opening of the MPTP, resulting in cell death.
CellTox™ Green is a dye which is unable to enter the cell until cell death leads to the loss of membrane integrity. Once this happens the CellTox™ Green enters the cell, binds to the cell's DNA and emits a fluorescent signal. […] Unless otherwise stated, the assay is typically run using a range of three compound concentrations of 1, 3 and 10 μM in triplicate and is read kinetically over a period of 24 hours. Compounds are added 30 minutes before the addition of thapsigargin. Compound only controls and positive control, cyclosporin A (CsA) (3 and 10 μM) are also included in the assay. Results are typically calculated at the 8 hour time point and the kinetic data is also reported.
The assay is carried out as described for the Jurkat cells but using the SH-SY5Y (human neuroblastoma) cell line instead of Jurkat cells. The results are shown in the fourth column of Table 5 (SY5Y [10 μM]% recovery). Positive numbers indicate protection from cell death, negative numbers indicate compound toxicity.

Chain of cyclophilin A (P62937 whole entry, species assumed): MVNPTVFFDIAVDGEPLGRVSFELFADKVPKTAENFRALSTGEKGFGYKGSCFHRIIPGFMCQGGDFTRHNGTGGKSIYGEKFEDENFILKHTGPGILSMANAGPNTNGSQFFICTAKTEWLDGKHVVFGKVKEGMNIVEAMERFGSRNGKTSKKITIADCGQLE

Ki (cyclophilin A) [nM] | Ki (cyclophilin D) [nM] | SMILES | CRC [10 μM] [1] | CRC [10 μM] (ratio vs CsA) [1] | SYSY [10 μM] % recovery (SH-SY5Y cells) [%]
150 | 160 | C[C@@H]1NC(=O)[C@H](C[C@H]2CCCN(C)C2)OC(=O)C(C)(C)/C=C/c2ccc3ccc(nc3c2)N(C)NC(=O)[C@@H]2CCCN(N2)C1=O [Compound (37)] | 5 | 0.33 | 41
26 | 11 | C[C@@H]1NC(=O)[C@H](CN2CCNCC2)OC(=O)C(C)(C)/C=C/c2ccc3ccc(nc3c2)N(C)NC(=O)[C@@H]2CCCN(N2)C1=O [Compound (48)] | 10 | 0.5 | 46
22 | 14 | CC(C)C(=O)Nc1cccc(C[C@@H]2OC(=O)C(C)(C)/C=C/c3ccc4ccc(nc4c3)N(C)NC(=O)[C@@H]3CCCN(N3)C(=O)[C@H](C)NC2=O)c1 [Compound (49)] | 20 | 1.00 | 40
15 | 28 | C[C@@H]1NC(=O)[C@H](CCl)OC(=O)C(C)(C)/C=C/c2ccc3ccc(nc3c2)N(C)NC(=O)[C@@H]2CCCN(N2)C1=O [Compound (53)] | 25 | 0.83 | 21
110 | 1900 | C[C@@H]1NC(=O)[C@H](CCCN)OC(=O)C(C)(C)/C=C/c2ccc3ccc(nc3c2)N(C)NC(=O)[C@@H]2CCCN(N2)C1=O [Compound (55)] | 5 | 0.25 | 37
295 | 56.6 | C[C@@H]1NC(=O)[C@H](CC2CCCNC2)OC(=O)C(C)(C)/C=C/c2ccc3ccc(nc3c2)N(C)NC(=O)[C@@H]2CCCN(N2)C1=O (some centres unmarked) [Compound (56)] | 8 | 0.36 | 15
7.8 | 7.6 | C[C@@H]1NC(=O)[C@H](C[C@@H]2CCCNC2)OC(=O)C(C)(C)/C=C/c2ccc3ccc(nc3c2)N(C)NC(=O)[C@@H]2CCCN(N2)C1=O [Compound (57)] | 15 | 0.75 | 48.48
5.1 | 59 | CC(C)[C@@H]1OC(=O)C(C)(C)/C=C/c2ccc3ccc(nc3c2)N(C)NC(=O)[C@@H]2CCCN(N2)C(=O)[C@H](CCC(=O)N(C)c2ccccc2)NC1=O [Compound (64)] | 25 | 1.00 | 44
3.6 | 6.6 | CC(C)[C@@H]1OC(=O)C(C)(C)/C=C/c2ccc3ccc(nc3c2)N(C)NC(=O)[C@@H]2CCCN(N2)C(=O)[C@H](CCC(=O)N[C@H](C)c2ccccc2)NC1=O [Compound (66)] | 25 | 0.80 | 63
34 | 41 | CC(C)[C@@H]1OC(=O)C(C)(C)/C=C/c2ccc3ccc(nc3c2)N(C)NC(=O)[C@@H]2CCCN(N2)C(=O)[C@H](CCC(=O)N2CCNCC2)NC1=O [Compound (69)] | 20 | 0.80 | 17
6.7 | 53 | CC(C)[C@@H]1OC(=O)C(C)(C)/C=C/c2ccc3ccc(nc3c2)N(C)NC(=O)[C@@H]2CCCN(N2)C(=O)[C@H](CCC(=O)N2CCN(C)CC2)NC1=O [Compound (70)] | 25 | 1.00 | 44

More lines, now with the values behind:

SMILES | Ki (cyclophilin A) [nM] | Ki (cyclophilin D) [nM] | CRC [10 μM] [1] | CRC [10 μM] (ratio vs CsA) [1] | SYSY [10 μM] % recovery (SH-SY5Y cells) [%]
C[C@@H]1NC(=O)C(Cc2ccc(N)nc2)OC(=O)C(C)(C)/C=C/c2ccc3ccc(nc3c2)N(C)NC(=O)[C@@H]2CCCN(N2)C1=O (some centres unmarked) [Compound (43)] | 44 | 40 | 10 | 0.67 | 10
C[C@@H]1NC(=O)[C@H](Cc2ccc(NS(C)(=O)=O)cc2)OC(=O)C(C)(C)/C=C/c2ccc3ccc(nc3c2)N(C)NC(=O)[C@@H]2CCCN(N2)C1=O [Compound (46)] | 3 | 2.5 | 25 | 1.00 | 29
C[C@@H]1NC(=O)[C@H](Cc2cccc(N)c2)OC(=O)C(C)(C)/C=C/c2ccc3ccc(nc3c2)N(C)NC(=O)[C@@H]2CCCN(N2)C1=O [Compound (50)] | 2.4 | 1.6 | 20 | 1.00 | 25
C[C@@H]1NC(=O)[C@H](CCC(N)=O)OC(=O)C(C)(C)/C=C/c2ccc3ccc(nc3c2)N(C)NC(=O)[C@@H]2CCCN(N2)C1=O [Compound (54)] | 36 | 700 | 15 | 0.50 | 10
COc1ccc(C[C@@H]2OC(=O)C(C)(C)/C=C/c3ccc4ccc(nc4c3)N(C)NC(=O)[C@@H]3CCCN(N3)C(=O)[C@H](C)NC2=O)cc1 [Compound (60)] | 1.3 | 9.5 | 25 | 0.80 | 37
CC(C)[C@@H]1OC(=O)C(C)(C)/C=C/c2ccc3ccc(nc3c2)N(C)NC(=O)[C@@H]2CCCN(N2)C(=O)[C@H](CCCCNCc2ccc3ccccc3c2)NC1=O [Compound (61)] | 1.85 | 4.25 | 20 | 0.78 | 35
CC(C)[C@@H]1OC(=O)C(C)(C)/C=C/c2ccc3ccc(nc3c2)N(C)NC(=O)[C@@H]2CCCN(N2)C(=O)[C@H](CCC(=O)Nc2ccccc2)NC1=O [Compound (63)] | 11 | 15 | 30 | 1.00 | 48
CC(C)[C@@H]1OC(=O)C(C)(C)/C=C/c2ccc3ccc(nc3c2)N(C)NC(=O)[C@@H]2CCCN(N2)C(=O)[C@H](CCC(=O)NCc2cccnc2)NC1=O [Compound (65)] | 14 | 22 | 20 | 0.90 | 51
CC(C)[C@@H]1OC(=O)C(C)(C)/C=C/c2ccc3ccc(nc3c2)N(C)NC(=O)[C@@H]2CCCN(N2)C(=O)[C@H](CCC(=O)NCC2CCOCC2)NC1=O [Compound (67)] | 40 | 26 | 25 | 1.00 | 52
CC(C)[C@@H]1OC(=O)C(C)(C)/C=C/c2ccc3ccc(nc3c2)N(C)NC(=O)[C@@H]2CCCN(N2)C(=O)[C@H](CCC(=O)NCc2cnn(C)c2)NC1=O [Compound (68)] | 16 | 9.9 | 25 | 0.83 | 37
CC(C)[C@@H]1OC(=O)C(C)(C)/C=C/c2ccc3ccc(nc3c2)N(C)NC(=O)[C@@H]2CCCN(N2)C(=O)[C@H](CCC(=O)NC2CCN(C)CC2)NC1=O [Compound (71)] | 51 | 16 | 18.3 | 0.76 | 4

Source: US20250243219A1, “MACROCYCLIC COMPOUNDS AND USES THEREOF” (Cypralis Limited, priority 2022, published 2025)
